Source: publication PMC9856672, “SGC-CAMKK2-1: A Chemical Probe for CAMKK2” (Cells, 2023)

How the values were obtained:
ULK2 = target: T1, ULK2 (Homo sapiens, UniProt Q8IYT8); test: KINOMEscan at 1 μM, ULK2; assay type: binding; details: 1000 nM, read-out: Percent Control
T1 construct: purchased Eurofins DiscoverX KINOMEscan
Source text: (§1) Supplement cells-12-00287-s001.zip/File S2. KinomeScan data for the CAMKK2 probe and negative control.xlsx, sheet "SGC-CAMKK2-1N" | column: Percent Control

RET(V804L) = target: T2, RET(V804L) (Homo sapiens, UniProt P07949, V804L); test: KINOMEscan at 1 μM, RET(V804L); assay type: binding; details: 1000 nM, read-out: Percent Control
T2 construct: purchased Eurofins DiscoverX KINOMEscan
Source text: as §1

AKT3 = target: T3, AKT3 (Homo sapiens, UniProt Q9Y243); test: KINOMEscan at 1 μM, AKT3; assay type: binding; details: 1000 nM, read-out: Percent Control
T3 construct: purchased Eurofins DiscoverX KINOMEscan
Source text: as §1

TAK1 = target: T4, TAK1 (Homo sapiens, UniProt O43318); test: KINOMEscan at 1 μM, TAK1; assay type: binding; details: 1000 nM, read-out: Percent Control
T4 construct: purchased Eurofins DiscoverX KINOMEscan
Source text: as §1

TGFBR1 = target: T5, TGFBR1 (Homo sapiens, UniProt P36897); test: KINOMEscan at 1 μM, TGFBR1; assay type: binding; details: 1000 nM, read-out: Percent Control
T5 construct: purchased Eurofins DiscoverX KINOMEscan
Source text: as §1

MAP3K3 = target: T6, MAP3K3 (Homo sapiens, UniProt Q99759); test: KINOMEscan at 1 μM, MAP3K3; assay type: binding; details: 1000 nM, read-out: Percent Control
T6 construct: purchased Eurofins DiscoverX KINOMEscan
Source text: as §1

RIPK5 = target: T7, RIPK5 (Homo sapiens, UniProt Q6XUX3); test: KINOMEscan at 1 μM, RIPK5; assay type: binding; details: 1000 nM, read-out: Percent Control
T7 construct: purchased Eurofins DiscoverX KINOMEscan
Source text: as §1

ABL1-phosphorylated = target: T8, ABL1-phosphorylated (Homo sapiens, UniProt P00519); test: KINOMEscan at 1 μM, ABL1-phosphorylated; assay type: binding; details: 1000 nM, read-out: Percent Control
T8 construct: purchased Eurofins DiscoverX KINOMEscan
Source text: as §1

OSR1 = target: T9, OSR1 (Homo sapiens, UniProt O95747); test: KINOMEscan at 1 μM, OSR1; assay type: binding; details: 1000 nM, read-out: Percent Control
T9 construct: purchased Eurofins DiscoverX KINOMEscan
Source text: as §1

FLT3(ITD) = test: KINOMEscan at 1 μM, FLT3(ITD); assay type: binding, human; details: 1000 nM
Source text: as §1

SRMS = target: T10, SRMS (Homo sapiens, UniProt Q9H3Y6); test: KINOMEscan at 1 μM, SRMS; assay type: binding; details: 1000 nM, read-out: Percent Control
T10 construct: purchased Eurofins DiscoverX KINOMEscan
Source text: as §1

YSK4 = target: T11, YSK4 (Homo sapiens, UniProt Q56UN5); test: KINOMEscan at 1 μM, YSK4; assay type: binding; details: 1000 nM, read-out: Percent Control
T11 construct: purchased Eurofins DiscoverX KINOMEscan
T11 sequence (Q56UN5 whole entry): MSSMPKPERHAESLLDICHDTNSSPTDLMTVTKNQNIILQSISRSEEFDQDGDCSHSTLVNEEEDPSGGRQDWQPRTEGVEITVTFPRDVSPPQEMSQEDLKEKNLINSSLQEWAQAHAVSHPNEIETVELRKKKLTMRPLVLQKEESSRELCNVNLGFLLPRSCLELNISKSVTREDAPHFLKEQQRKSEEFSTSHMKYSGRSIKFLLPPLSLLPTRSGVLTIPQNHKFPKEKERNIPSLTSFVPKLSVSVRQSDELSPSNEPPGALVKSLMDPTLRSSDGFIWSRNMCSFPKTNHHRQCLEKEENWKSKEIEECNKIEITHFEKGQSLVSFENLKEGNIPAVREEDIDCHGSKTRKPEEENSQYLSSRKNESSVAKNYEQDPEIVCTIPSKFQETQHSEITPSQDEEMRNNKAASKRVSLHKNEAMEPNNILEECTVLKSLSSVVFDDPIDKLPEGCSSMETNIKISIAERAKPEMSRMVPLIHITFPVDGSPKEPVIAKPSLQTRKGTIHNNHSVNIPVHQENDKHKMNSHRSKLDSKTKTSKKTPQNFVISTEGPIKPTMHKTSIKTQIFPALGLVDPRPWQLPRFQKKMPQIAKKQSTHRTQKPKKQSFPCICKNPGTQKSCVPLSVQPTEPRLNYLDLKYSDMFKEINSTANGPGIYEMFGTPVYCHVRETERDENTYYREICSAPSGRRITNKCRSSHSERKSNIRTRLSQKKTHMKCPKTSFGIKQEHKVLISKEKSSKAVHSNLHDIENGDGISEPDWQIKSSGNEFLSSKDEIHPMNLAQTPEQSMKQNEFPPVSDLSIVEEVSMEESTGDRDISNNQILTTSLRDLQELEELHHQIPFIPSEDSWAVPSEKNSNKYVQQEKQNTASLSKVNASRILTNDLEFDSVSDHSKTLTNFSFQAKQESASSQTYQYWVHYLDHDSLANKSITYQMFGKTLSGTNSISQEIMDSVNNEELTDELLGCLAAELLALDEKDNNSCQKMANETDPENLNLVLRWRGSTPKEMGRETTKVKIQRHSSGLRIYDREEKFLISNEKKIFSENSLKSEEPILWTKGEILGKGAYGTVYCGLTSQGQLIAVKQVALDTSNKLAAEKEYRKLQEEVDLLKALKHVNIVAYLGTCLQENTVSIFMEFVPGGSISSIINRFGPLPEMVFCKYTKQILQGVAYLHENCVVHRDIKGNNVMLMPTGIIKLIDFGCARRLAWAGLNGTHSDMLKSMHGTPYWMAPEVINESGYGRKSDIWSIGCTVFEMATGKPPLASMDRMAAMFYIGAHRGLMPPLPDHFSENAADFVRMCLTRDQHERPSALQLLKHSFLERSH
Source text: as §1

TRKB = target: T12, TRKB (Homo sapiens, UniProt Q16620); test: KINOMEscan at 1 μM, TRKB; assay type: binding; details: 1000 nM, read-out: Percent Control
T12 construct: purchased Eurofins DiscoverX KINOMEscan
Source text: as §1

MST4 = target: T13, MST4 (Homo sapiens, UniProt Q9P289); test: KINOMEscan at 1 μM, MST4; assay type: binding; details: 1000 nM, read-out: Percent Control
T13 construct: purchased Eurofins DiscoverX KINOMEscan
Source text: as §1

CDKL1 = target: T14, CDKL1 (Homo sapiens, UniProt Q00532); test: KINOMEscan 1 μM, CDKL1; assay type: binding; details: 1000 nM; Entrez CDKL1; read-out: Percent Control
T14 construct: purchased Eurofins DiscoverX KINOMEscan
Source text: (§2) Supplement cells-12-00287-s001.zip/File S2. KinomeScan data for the CAMKK2 probe and negative control.xlsx, sheet "SGC-CAMKK2-1" | column: Percent Control

IKK-alpha = target: T15, IKK-alpha (Homo sapiens, UniProt O15111); test: KINOMEscan 1 μM, IKK-alpha; assay type: binding; details: 1000 nM; Entrez CHUK; read-out: Percent Control
T15 construct: purchased Eurofins DiscoverX KINOMEscan
Source text: as §2

PHKG1 = target: T16, PHKG1 (Homo sapiens, UniProt Q16816); test: KINOMEscan 1 μM, PHKG1; assay type: binding; details: 1000 nM; Entrez PHKG1; read-out: Percent Control
T16 construct: purchased Eurofins DiscoverX KINOMEscan
Source text: as §2

TLK2 = target: T17, TLK2 (Homo sapiens, UniProt Q86UE8); test: DiscoverX KINOMEscan binding assay at 1 μM, TLK2; details: Compound Concentration 1000 nM, read-out: Percent Control
T17 construct: purchased Eurofins DiscoverX KINOMEscan
Source text: as §2

PRKD3 = target: T18, PRKD3 (Homo sapiens, UniProt O94806); test: KINOMEscan 1 μM, PRKD3; assay type: binding; details: 1000 nM; Entrez PRKD3; read-out: Percent Control
T18 construct: purchased Eurofins DiscoverX KINOMEscan
Source text: as §2

BIKE = target: T19, BIKE (Homo sapiens, UniProt Q9NSY1); test: KINOMEscan 1 μM, BIKE; assay type: binding; details: 1000 nM; Entrez BMP2K; read-out: Percent Control
T19 construct: purchased Eurofins DiscoverX KINOMEscan
Source text: as §2

TEC = target: T20, TEC (Homo sapiens, UniProt P42680); test: KINOMEscan 1 μM, TEC; assay type: binding; details: 1000 nM; Entrez TEC; read-out: Percent Control
T20 construct: purchased Eurofins DiscoverX KINOMEscan
Source text: as §2

JNK3 = target: T21, JNK3 (Homo sapiens, UniProt P53779); test: KINOMEscan 1 μM, JNK3; assay type: binding; details: 1000 nM; Entrez MAPK10; read-out: Percent Control
T21 construct: purchased Eurofins DiscoverX KINOMEscan
Source text: as §2

SIK = target: T22, SIK (Homo sapiens, UniProt P57059); test: DiscoverX KINOMEscan binding assay at 1 μM, SIK; details: SIK (SIK1); Compound Concentration 1000 nM; read-out: Percent Control
T22 construct: purchased Eurofins DiscoverX KINOMEscan
T22 sequence (P57059 whole entry): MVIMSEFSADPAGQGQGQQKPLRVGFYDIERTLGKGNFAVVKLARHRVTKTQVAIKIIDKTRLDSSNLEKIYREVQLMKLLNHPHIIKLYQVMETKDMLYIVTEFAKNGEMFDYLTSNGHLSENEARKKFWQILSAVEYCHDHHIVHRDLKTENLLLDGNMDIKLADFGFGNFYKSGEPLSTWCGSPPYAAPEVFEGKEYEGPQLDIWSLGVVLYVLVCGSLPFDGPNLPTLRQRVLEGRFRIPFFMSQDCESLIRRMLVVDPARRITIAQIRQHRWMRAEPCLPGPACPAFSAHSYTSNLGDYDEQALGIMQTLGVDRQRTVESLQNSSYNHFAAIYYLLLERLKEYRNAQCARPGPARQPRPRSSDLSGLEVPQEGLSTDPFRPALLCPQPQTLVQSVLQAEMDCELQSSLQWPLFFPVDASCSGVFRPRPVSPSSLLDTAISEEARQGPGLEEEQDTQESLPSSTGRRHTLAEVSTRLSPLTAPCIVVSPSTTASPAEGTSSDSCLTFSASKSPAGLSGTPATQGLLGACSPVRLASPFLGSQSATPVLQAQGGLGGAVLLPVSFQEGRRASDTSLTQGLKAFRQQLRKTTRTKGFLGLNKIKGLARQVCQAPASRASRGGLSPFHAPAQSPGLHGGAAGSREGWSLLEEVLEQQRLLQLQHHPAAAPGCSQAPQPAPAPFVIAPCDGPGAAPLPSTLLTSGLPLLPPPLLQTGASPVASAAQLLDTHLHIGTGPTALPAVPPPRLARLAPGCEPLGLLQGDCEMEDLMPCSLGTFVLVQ
Source text: as §2

HIPK3 = target: T23, HIPK3 (Homo sapiens, UniProt Q9H422); test: KINOMEscan 1 μM, HIPK3; assay type: binding; details: 1000 nM; Entrez HIPK3; read-out: Percent Control
T23 construct: purchased Eurofins DiscoverX KINOMEscan
T23 sequence (Q9H422 whole entry): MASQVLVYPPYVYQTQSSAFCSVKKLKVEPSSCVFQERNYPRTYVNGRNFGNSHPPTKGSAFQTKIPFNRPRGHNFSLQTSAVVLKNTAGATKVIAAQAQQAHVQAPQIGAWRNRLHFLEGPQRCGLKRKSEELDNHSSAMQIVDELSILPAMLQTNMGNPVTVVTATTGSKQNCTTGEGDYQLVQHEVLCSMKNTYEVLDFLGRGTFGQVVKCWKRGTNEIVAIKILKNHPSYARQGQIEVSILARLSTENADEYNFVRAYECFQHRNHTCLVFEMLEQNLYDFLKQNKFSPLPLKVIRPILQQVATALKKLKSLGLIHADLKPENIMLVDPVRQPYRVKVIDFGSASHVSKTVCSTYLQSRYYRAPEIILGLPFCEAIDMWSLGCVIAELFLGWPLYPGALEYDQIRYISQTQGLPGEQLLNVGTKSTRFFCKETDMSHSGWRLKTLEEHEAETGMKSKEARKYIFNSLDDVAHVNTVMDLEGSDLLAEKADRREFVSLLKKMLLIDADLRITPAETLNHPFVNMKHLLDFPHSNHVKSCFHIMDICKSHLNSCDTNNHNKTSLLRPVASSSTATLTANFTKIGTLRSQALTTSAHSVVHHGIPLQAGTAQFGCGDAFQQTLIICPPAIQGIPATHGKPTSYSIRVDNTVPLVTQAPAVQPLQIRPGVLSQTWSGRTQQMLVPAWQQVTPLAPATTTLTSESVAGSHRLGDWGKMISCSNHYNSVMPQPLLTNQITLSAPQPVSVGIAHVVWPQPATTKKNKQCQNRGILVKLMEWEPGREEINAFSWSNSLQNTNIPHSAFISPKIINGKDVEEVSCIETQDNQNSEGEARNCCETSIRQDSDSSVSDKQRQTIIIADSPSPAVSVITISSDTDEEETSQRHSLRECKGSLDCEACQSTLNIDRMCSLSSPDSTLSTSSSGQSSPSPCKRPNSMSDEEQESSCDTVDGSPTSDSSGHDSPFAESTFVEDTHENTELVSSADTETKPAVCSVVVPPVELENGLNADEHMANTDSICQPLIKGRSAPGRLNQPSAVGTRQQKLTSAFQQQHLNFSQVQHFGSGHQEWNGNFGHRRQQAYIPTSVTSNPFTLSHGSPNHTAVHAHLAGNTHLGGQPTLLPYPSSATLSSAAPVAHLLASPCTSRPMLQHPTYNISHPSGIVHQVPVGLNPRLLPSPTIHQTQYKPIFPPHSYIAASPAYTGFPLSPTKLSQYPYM
Source text: as §2

MAPKAPK5 = target: T24, MAPKAPK5 (Homo sapiens, UniProt Q8IW41); test: KINOMEscan 1 μM, MAPKAPK5; assay type: binding; details: 1000 nM; Entrez MAPKAPK5; read-out: Percent Control
T24 construct: purchased Eurofins DiscoverX KINOMEscan
Source text: as §2

PIK3CA(H1047Y) = target: T25, PIK3CA(H1047Y) (Homo sapiens, UniProt P42336, H1047Y); test: DiscoverX KINOMEscan binding assay at 1 μM, PIK3CA(H1047Y); details: Compound Concentration 1000 nM, read-out: Percent Control
T25 construct: purchased Eurofins DiscoverX KINOMEscan
T25 sequence (P42336 whole entry H1047Y): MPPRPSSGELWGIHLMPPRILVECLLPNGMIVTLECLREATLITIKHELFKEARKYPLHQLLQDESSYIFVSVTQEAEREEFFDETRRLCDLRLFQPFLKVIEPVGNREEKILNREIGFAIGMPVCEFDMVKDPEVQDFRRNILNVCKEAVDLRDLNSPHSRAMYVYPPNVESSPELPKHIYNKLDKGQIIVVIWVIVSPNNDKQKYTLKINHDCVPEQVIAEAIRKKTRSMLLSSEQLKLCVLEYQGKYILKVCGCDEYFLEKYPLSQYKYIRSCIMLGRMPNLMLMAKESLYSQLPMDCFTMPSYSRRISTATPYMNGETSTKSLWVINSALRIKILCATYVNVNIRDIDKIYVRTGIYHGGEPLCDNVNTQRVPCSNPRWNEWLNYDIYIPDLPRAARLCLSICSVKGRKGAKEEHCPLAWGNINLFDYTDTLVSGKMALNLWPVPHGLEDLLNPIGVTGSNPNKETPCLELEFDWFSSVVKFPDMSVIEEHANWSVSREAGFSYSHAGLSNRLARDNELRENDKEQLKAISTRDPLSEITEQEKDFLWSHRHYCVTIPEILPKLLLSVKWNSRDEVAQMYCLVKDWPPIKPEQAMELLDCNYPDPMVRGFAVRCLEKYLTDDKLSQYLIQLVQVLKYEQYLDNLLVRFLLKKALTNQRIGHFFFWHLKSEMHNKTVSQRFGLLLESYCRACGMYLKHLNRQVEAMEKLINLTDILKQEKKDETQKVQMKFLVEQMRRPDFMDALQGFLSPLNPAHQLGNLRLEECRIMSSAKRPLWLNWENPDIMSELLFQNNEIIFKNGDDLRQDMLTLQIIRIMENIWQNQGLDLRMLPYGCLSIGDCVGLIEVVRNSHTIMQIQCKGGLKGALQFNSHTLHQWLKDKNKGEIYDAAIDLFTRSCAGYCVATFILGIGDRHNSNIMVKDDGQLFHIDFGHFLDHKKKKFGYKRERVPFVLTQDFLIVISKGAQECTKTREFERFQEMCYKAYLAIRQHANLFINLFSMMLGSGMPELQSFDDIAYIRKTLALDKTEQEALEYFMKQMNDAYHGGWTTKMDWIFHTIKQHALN
Source text: as §2

BLK = target: T26, BLK (Homo sapiens, UniProt P51451); test: KINOMEscan 1 μM, BLK; assay type: binding; details: 1000 nM; Entrez BLK; read-out: Percent Control
T26 construct: purchased Eurofins DiscoverX KINOMEscan
Source text: as §2

[1] = target: T27, RSK3(Kin.Dom.1-N-terminal) (Homo sapiens, UniProt Q15349); test: KINOMEscan 1 μM, RSK3(Kin.Dom.1-N-terminal); assay type: binding; details: 1000 nM; Entrez RPS6KA2; read-out: Percent Control
T27 construct: RSK3(Kin.Dom.1-N-terminal); purchased Eurofins DiscoverX KINOMEscan
Source text: as §2

CDC2L1 = target: T28, CDC2L1 (Homo sapiens, UniProt P21127); test: KINOMEscan 1 μM, CDC2L1; assay type: binding; details: 1000 nM; Entrez CDK11B; read-out: Percent Control
T28 construct: purchased Eurofins DiscoverX KINOMEscan
Source text: as §2

[2] = target: T29, RSK1(Kin.Dom.1-N-terminal) (Homo sapiens, UniProt Q15418); test: DiscoverX KINOMEscan binding assay at 1 μM, RSK1(Kin.Dom.1-N-terminal); details: RSK1(Kin.Dom.1-N-terminal) (RPS6KA1); Compound Concentration 1000 nM; read-out: Percent Control
T29 construct: RSK1(Kin.Dom.1-N-terminal); purchased Eurofins DiscoverX KINOMEscan
Source text: as §2

PIK3CA(I800L) = target: T30, PIK3CA(I800L) (Homo sapiens, UniProt P42336, I800L); test: KINOMEscan 1 μM, PIK3CA(I800L); assay type: binding; details: 1000 nM; Entrez PIK3CA; read-out: Percent Control
T30 construct: purchased Eurofins DiscoverX KINOMEscan
T30 sequence (P42336 whole entry I800L): as the sequence (P42336 whole entry H1047Y) above, with I800L, Y1047H counted along it
Source text: as §2

PAK4 = target: T31, PAK4 (Homo sapiens, UniProt O96013); test: KINOMEscan 1 μM, PAK4; assay type: binding; details: 1000 nM; Entrez PAK4; read-out: Percent Control
T31 construct: purchased Eurofins DiscoverX KINOMEscan
T31 sequence (O96013 whole entry): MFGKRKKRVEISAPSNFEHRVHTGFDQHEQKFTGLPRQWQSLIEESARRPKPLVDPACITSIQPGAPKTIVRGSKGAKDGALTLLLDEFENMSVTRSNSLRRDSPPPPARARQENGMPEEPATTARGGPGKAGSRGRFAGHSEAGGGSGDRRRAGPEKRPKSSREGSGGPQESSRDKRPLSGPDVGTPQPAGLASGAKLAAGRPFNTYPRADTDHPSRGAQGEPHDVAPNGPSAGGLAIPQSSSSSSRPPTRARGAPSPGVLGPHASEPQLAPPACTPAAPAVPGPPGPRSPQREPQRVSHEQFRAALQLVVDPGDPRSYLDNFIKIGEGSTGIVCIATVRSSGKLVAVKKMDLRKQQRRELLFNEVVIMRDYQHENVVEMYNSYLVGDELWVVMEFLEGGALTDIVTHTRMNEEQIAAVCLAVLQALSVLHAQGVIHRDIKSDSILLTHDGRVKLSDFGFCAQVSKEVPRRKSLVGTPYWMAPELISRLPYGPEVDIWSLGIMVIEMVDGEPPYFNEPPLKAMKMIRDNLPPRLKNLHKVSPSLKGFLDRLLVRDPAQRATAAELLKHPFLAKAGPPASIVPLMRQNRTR
Source text: as §2

SMILES: O=C(O)c1ccc(-c2coc3ncc(-c4ccccc4)cc23)cc1Cl [SGC-CAMKK2-1N (UNC-YL-83)]
- remaining binding at 1 µM (ULK2): 71%
- remaining binding at 1 µM (RET(V804L)): 90%
- remaining binding at 1 µM (AKT3): 95%
- remaining binding at 1 µM (TAK1): 62%
- remaining binding at 1 µM (TGFBR1): 80%
- remaining binding at 1 µM (MAP3K3): 47%
- remaining binding at 1 µM (RIPK5): 78%
- remaining binding at 1 µM (ABL1-phosphorylated): 69%
- remaining binding at 1 µM (OSR1): 64%
- Percent Control (FLT3(ITD)): 81
- remaining binding at 1 µM (SRMS): 79%
- remaining binding at 1 µM (YSK4): 77%
- remaining binding at 1 µM (TRKB): 81%
- remaining binding at 1 µM (MST4): 64%

SMILES: Cc1cccc(-c2cnc3occ(-c4ccc(C(=O)O)c(C5CCCC5)c4)c3c2)c1 [SGC-CAMKK2-1 (YL-36)]
- remaining binding at 1 µM (CDKL1): 100%
- remaining binding at 1 µM (IKK-alpha): 100%
- remaining binding at 1 µM (PHKG1): 80%
- remaining binding at 1 µM (TLK2): 100%
- remaining binding at 1 µM (PRKD3): 77%
- remaining binding at 1 µM (BIKE): 100%
- remaining binding at 1 µM (TEC): 95%
- remaining binding at 1 µM (JNK3): 100%
- remaining binding at 1 µM (SIK): 100%
- remaining binding at 1 µM (HIPK3): 100%
- remaining binding at 1 µM (MAPKAPK5): 100%
- remaining binding at 1 µM (PIK3CA(H1047Y)): 100%
- remaining binding at 1 µM (BLK): 70%
- remaining binding at 1 µM [1]: 86%
- remaining binding at 1 µM (CDC2L1): 93%
- remaining binding at 1 µM [2]: 100%
- remaining binding at 1 µM (PIK3CA(I800L)): 85%
- remaining binding at 1 µM (PAK4): 69%
